Measured values from PubChem BioAssay AID256 (DTP/NCI, 2004).
“And” between values parts separate entries of the source, which are not always exact repeats. Equal entries are not always repeated. Inconclusive results and toxic doses are left out. How the source made its calls: active means survival T/C of 150% or more; inactive means T/C below 125% in these data.

Tested on: CD2F1 mice, L1210 leukemia ip, survival T/C
Assay: NCI In Vivo Anticancer Drug Screen. Data for tumor model L1210 Leukemia (intraperitoneal) in CD2F1 (CDF1) mice
Settings: higher = longer survival
Outline: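 Implant tumor; dose compound or vehicle; measure endpoint in both groups; report treated divided by control.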

[1] = endpoint: mean survival time, dose: 100.0 mg/kg/injection, schedule: Q01DX009 (ip), vehicle: saline with Tween-80
[2] = endpoint: mean survival time, dose: 100.0 mg/kg/injection, schedule: Q04DX003 (ip), vehicle: saline with Tween-80
[3] = endpoint: mean survival time, dose: 200.0 mg/kg/injection, schedule: Q04DX003 (ip), vehicle: saline with Tween-80
[4] = endpoint: mean survival time, dose: 400.0 mg/kg/injection, schedule: Q04DX003 (ip), vehicle: saline with Tween-80
[5] = endpoint: mean survival time, dose: 100.0 mg/kg/injection, schedule: Q01DX001 (ip), vehicle: saline
[6] = endpoint: mean survival time, dose: 100.0 mg/kg/injection, schedule: Q01DX009 (ip), vehicle: saline
[7] = endpoint: mean survival time, dose: 50.0 mg/kg/injection, schedule: Q01DX009 (ip), vehicle: Klucel (hydroxypropylcellulose) (HPC)
[8] = endpoint: mean survival time, dose: 100.0 mg/kg/injection, schedule: Q01DX009 (ip), vehicle: Klucel (hydroxypropylcellulose) (HPC)
[9] = endpoint: mean survival time, dose: 200.0 mg/kg/injection, schedule: Q01DX009 (ip), vehicle: Klucel (hydroxypropylcellulose) (HPC)
[10] = endpoint: mean survival time, dose: 200.0 mg/kg/injection, schedule: Q01DX009 (ip), vehicle: saline
[11] = endpoint: mean survival time, dose: 400.0 mg/kg/injection, schedule: Q01DX009 (ip), vehicle: saline
[12] = endpoint: mean survival time, dose: 200.0 mg/kg/injection, schedule: Q01DX009 (ip), vehicle: saline with Tween-80
[13] = endpoint: mean survival time, dose: 400.0 mg/kg/injection, schedule: Q01DX009 (ip), vehicle: saline with Tween-80
[14] = endpoint: mean survival time, dose: 200.0 mg/kg/injection, schedule: Q01DX001 (ip), vehicle: saline
[15] = endpoint: mean survival time, dose: 400.0 mg/kg/injection, schedule: Q01DX001 (ip), vehicle: saline

Measured: T/C

O=C(CCCN1CCC(C(O)c2ccc(F)cc2)CC1)c1ccc(F)cc1 (configuration not stated)
inactive: endpoint: median survival time, dose: 6.25 mg/kg/injection, schedule: Q01DX009 (ip), vehicle: saline with Tween-80 103 % of control and 109 % of control and 112 % of control | endpoint: median survival time, dose: 6.25 mg/kg/injection, schedule: Q06HX014 (oral), vehicle: saline with Tween-80 104 % of control | endpoint: median survival time, dose: 12.5 mg/kg/injection, schedule: Q01DX009 (ip), vehicle: saline with Tween-80 120 % of control and 108 % of control | endpoint: median survival time, dose: 12.5 mg/kg/injection, schedule: Q01DX009 (oral), vehicle: saline with Tween-80 111 % of control | endpoint: median survival time, dose: 12.5 mg/kg/injection, schedule: Q06HX014 (oral), vehicle: saline with Tween-80 105 % of control | endpoint: median survival time, dose: 25.0 mg/kg/injection, schedule: Q01DX009 (ip), vehicle: saline with Tween-80 121 % of control | endpoint: median survival time, dose: 25.0 mg/kg/injection, schedule: Q01DX009 (oral), vehicle: saline with Tween-80 105 % of control | endpoint: median survival time, dose: 25.0 mg/kg/injection, schedule: Q04DX003 (oral), vehicle: saline with Tween-80 102 % of control | endpoint: median survival time, dose: 25.0 mg/kg/injection, schedule: Q06HX014 (oral), vehicle: saline with Tween-80 105 % of control | endpoint: median survival time, dose: 29.7 mg/kg/injection, schedule: Q01DX009 (oral), vehicle: saline with Tween-80 109 % of control | endpoint: median survival time, dose: 44.5 mg/kg/injection, schedule: Q01DX009 (oral), vehicle: saline with Tween-80 111 % of control | endpoint: median survival time, dose: 50.0 mg/kg/injection, schedule: Q01DX009 (ip), vehicle: saline with Tween-80 123 % of control and 124 % of control | endpoint: median survival time, dose: 50.0 mg/kg/injection, schedule: Q01DX009 (oral), vehicle: saline with Tween-80 115 % of control | endpoint: median survival time, dose: 50.0 mg/kg/injection, schedule: Q04DX003 (oral), vehicle: saline with Tween-80 112 % of control | endpoint: median survival time, dose: 50.0 mg/kg/injection, schedule: Q06HX014 (oral), vehicle: saline with Tween-80 113 % of control | endpoint: median survival time, dose: 66.7 mg/kg/injection, schedule: Q01DX009 (oral), vehicle: saline with Tween-80 118 % of control | endpoint: median survival time, dose: 100.0 mg/kg/injection, schedule: Q01DX009 (ip), vehicle: saline with Tween-80 118 % of control | endpoint: median survival time, dose: 100.0 mg/kg/injection, schedule: Q01DX009 (oral), vehicle: saline with Tween-80 118 % of control | endpoint: median survival time, dose: 100.0 mg/kg/injection, schedule: Q04DX003 (oral), vehicle: saline with Tween-80 111 % of control | endpoint: median survival time, dose: 200.0 mg/kg/injection, schedule: Q04DX003 (oral), vehicle: saline with Tween-80 115 % of control

N#C/C(=C\c1c(O)ccc2ccccc12)c1ccc([N+](=O)[O-])cc1
inactive: endpoint: mean survival time, dose: 66.0 mg/kg/injection, schedule: Q01DX009 (ip), vehicle: saline with Tween-80 88 % of control | [1] 91 % of control and 92 % of control | [2] 91 % of control | endpoint: mean survival time, dose: 150.0 mg/kg/injection, schedule: Q01DX009 (ip), vehicle: saline with Tween-80 100 % of control | [3] 94 % of control | [4] 91 % of control

Fc1ccc(NCCS)cc1
inactive: endpoint: mean survival time, dose: 100.0 mg/kg/injection, schedule: Q01DX009 (ip), vehicle: saline sonified 97 % of control | endpoint: mean survival time, dose: 200.0 mg/kg/injection, schedule: Q01DX009 (ip), vehicle: saline sonified 98 % of control | endpoint: mean survival time, dose: 400.0 mg/kg/injection, schedule: Q01DX009 (ip), vehicle: saline sonified 103 % of control

CCCCNCCO
inactive: [5] 104 % of control

OCC(F)(F)F
inactive: [6] 123 % of control | [2] 108 % of control | [3] 110 % of control | [4] 115 % of control

O=C1OCC2C1Cc1cc(O)c(O)cc1C2c1ccc(O)c(O)c1 (configuration not stated)
inactive: [7] 96 % of control | [8] 101 % of control | [9] 104 % of control

CCCCCCCCCCCCc1ccc(CSC(C(=O)OC)C(SCc2ccc(CCCCCCCCCCCC)cc2)C(=O)OC)cc1 (configuration not stated)
inactive: [6] 102 % of control | [10] 100 % of control | [11] 104 % of control

OC(c1ccccc1)(c1ccccc1)c1ccc(CN2CCCCC2)cc1
inactive: endpoint: mean survival time, dose: 12.5 mg/kg/injection, schedule: Q01DX009 (ip), vehicle: other 94 % of control | endpoint: mean survival time, dose: 25.0 mg/kg/injection, schedule: Q01DX009 (ip), vehicle: other 92 % of control | endpoint: mean survival time, dose: 50.0 mg/kg/injection, schedule: Q01DX009 (ip), vehicle: other 86 % of control | endpoint: mean survival time, dose: 100.0 mg/kg/injection, schedule: Q01DX009 (ip), vehicle: other 86 % of control | endpoint: mean survival time, dose: 200.0 mg/kg/injection, schedule: Q01DX009 (ip), vehicle: other 87 % of control

Cc1ccc(NC(=S)NCCO)cc1
inactive: [1] 86 % of control | [12] 92 % of control | [13] 88 % of control

O=C(O)CCn1c(=O)[nH]c(=O)n(CCC(=O)O)c1=O
inactive: [1] 96 % of control | [2] 113 % of control | [12] 100 % of control | [3] 101 % of control | [13] 97 % of control | [4] 98 % of control

CC(C)=C(c1ccccc1)c1c(N)ncnc1Cl
inactive: [5] 97 % of control | [14] 95 % of control | [15] 100 % of control

NCCCN1CCCCC1
inactive: endpoint: mean survival time, dose: 100.0 mg/kg/injection, schedule: Q04DX002 (ip), vehicle: saline 102 % of control | endpoint: mean survival time, dose: 200.0 mg/kg/injection, schedule: Q04DX002 (ip), vehicle: saline 95 % of control | endpoint: mean survival time, dose: 400.0 mg/kg/injection, schedule: Q04DX002 (ip), vehicle: saline 102 % of control

NC1C(O)C(O)C(O)C(O)C1O (configuration not stated)
inactive: [5] 98 % of control | [14] 98 % of control | [15] 98 % of control

NC(=O)C(F)(F)F
inactive: [6] 98 % of control | [10] 98 % of control | [11] 100 % of control

O=Cc1ccc(O)c(Cl)c1
inactive: endpoint: mean survival time, dose: 100.0 mg/kg/injection, schedule: Q01DX001 (ip), vehicle: saline with Tween-80 96 % of control | endpoint: mean survival time, dose: 200.0 mg/kg/injection, schedule: Q01DX001 (ip), vehicle: saline with Tween-80 104 % of control | endpoint: mean survival time, dose: 400.0 mg/kg/injection, schedule: Q01DX001 (ip), vehicle: saline with Tween-80 93 % of control

O=c1nc(NCC23CC4CC(CC(C4)C2)C3)ccn1C1OC(CO)C(O)C1O (configuration not stated)
inactive: endpoint: median survival time, dose: 12.5 mg/kg/injection, schedule: Q01DX005 (ip), vehicle: distilled water + Tween-80 100 % of control | endpoint: median survival time, dose: 25.0 mg/kg/injection, schedule: Q01DX005 (ip), vehicle: distilled water + Tween-80 101 % of control | endpoint: median survival time, dose: 50.0 mg/kg/injection, schedule: Q01DX005 (ip), vehicle: distilled water + Tween-80 101 % of control | endpoint: median survival time, dose: 100.0 mg/kg/injection, schedule: Q01DX005 (ip), vehicle: distilled water + Tween-80 94 % of control | endpoint: median survival time, dose: 200.0 mg/kg/injection, schedule: Q01DX005 (ip), vehicle: distilled water + Tween-80 91 % of control

COc1cc2c(cc1OC)NC(=O)CC(=O)N2
inactive: [3] 91 % of control | [4] 98 % of control

CCCC(C#N)(CCCl)c1ccccc1 (configuration not stated)
inactive: [2] 101 % of control | [3] 101 % of control | [4] 96 % of control

N#C[S-].N#C[S-].[NH-]CC[NH-].[Pt+4]
inactive: endpoint: mean survival time, dose: 10.0 mg/kg/injection, schedule: Q04DX003 (ip), vehicle: saline with Tween-80 97 % of control | endpoint: mean survival time, dose: 20.0 mg/kg/injection, schedule: Q04DX003 (ip), vehicle: saline with Tween-80 98 % of control | endpoint: mean survival time, dose: 40.0 mg/kg/injection, schedule: Q04DX003 (ip), vehicle: saline with Tween-80 106 % of control

Cc1c(Cl)cccc1NC(=O)Nc1ccc(F)c([N+](=O)[O-])c1
inactive: [7] 91 % of control | [8] 102 % of control | [9] 98 % of control

Cn1c(=O)c2c(nc(NN)n2C)n(C)c1=O
inactive: endpoint: mean survival time, dose: 12.5 mg/kg/injection, schedule: Q01DX005 (ip), vehicle: distilled water + Tween-80 100 % of control | endpoint: mean survival time, dose: 25.0 mg/kg/injection, schedule: Q01DX005 (ip), vehicle: distilled water + Tween-80 100 % of control | endpoint: mean survival time, dose: 50.0 mg/kg/injection, schedule: Q01DX005 (ip), vehicle: distilled water + Tween-80 103 % of control | endpoint: mean survival time, dose: 100.0 mg/kg/injection, schedule: Q01DX005 (ip), vehicle: distilled water + Tween-80 89 % of control | endpoint: mean survival time, dose: 200.0 mg/kg/injection, schedule: Q01DX005 (ip), vehicle: distilled water + Tween-80 101 % of control

Cc1c(C)c(C)c(CCl)c(C)c1C
inactive: endpoint: mean survival time, dose: 50.0 mg/kg/injection, schedule: Q01DX009 (ip), vehicle: saline with Tween-80 103 % of control | [1] 103 % of control
